Source: patent US10457691B2, “Macrocyclic kinase inhibitors and uses thereof” (Dana-Farber Cancer Institute, Inc., priority 2014, dated 2019)

Tests used:
Assay type in all cases: biochemical
Details in all cases: read-out: Activity of the protein kinase when treated with compound I-1 (% control)
BRSK1 = BRSK1 (Homo sapiens, UniProt Q8TDC3); experiment: Protein kinase assay ([γ-32P] ATP), BRSK1
Description: (§1) In another set of experiments, the activities of the compounds described herein against various protein kinases were determined according to the methods reported in Hastie et al., Nature Protocols, 2006, 1, 968-971.
(§2) Enzyme dilution buffer. This buffer consisted of 50 mM Tris-HCl, pH 7.5, 0.1 mM EGTA, 1 mg ml^−1 bovine serum albumin and 0.1% (vol/vol) 2-mercaptoethanol.
(§3) 10× concentrated assay buffer. An assay buffer of 500 mM Tris-HCl, pH 7.5, 1 mM EGTA, and 100 mM magnesium acetate was used for assay of a wide variety of protein kinases. In some experiments, other cofactors were included (e.g., calcium ions and calmodulin were included for assay of calcium-calmodulindependent protein kinases).
(§4) 1 mM [γ-^32P] ATP. The specific activity of the [γ-^32P] ATP solution was 1×10^5 to 1×10^6 c.p.m. per nmol depending on what was needed to produce an optimal signal/noise ratio. […] To measure the concentration of ATP, a sample of such a stock solution was diluted to 20 μM, and the absorbance of the diluted sample was measured at 259 nm. The absorbance of a 20-μM stock solution of ATP at 259 nm was about 0.31. […] ATP to produce a radioactivity of 1×10^5 to 1×10^6 c.p.m. per nmol. […]
(§5) 13) Measure radioactivity in the samples by Cerenkov counting (e.g., without liquid scintillation fluid) in a liquid scintillation counter using a “^32P program”. […]

BTK = BTK (Homo sapiens, UniProt Q06187); experiment: Protein kinase assay ([γ-32P] ATP), BTK
Description: as §1, §2, §3, §4, §5

CDK9-Cyclin T1 = CDK9-Cyclin T1 (Homo sapiens, UniProt P50750); experiment: Protein kinase assay ([γ-32P] ATP), CDK9-Cyclin T1
CDK9-Cyclin T1, sequence (P50750 whole entry): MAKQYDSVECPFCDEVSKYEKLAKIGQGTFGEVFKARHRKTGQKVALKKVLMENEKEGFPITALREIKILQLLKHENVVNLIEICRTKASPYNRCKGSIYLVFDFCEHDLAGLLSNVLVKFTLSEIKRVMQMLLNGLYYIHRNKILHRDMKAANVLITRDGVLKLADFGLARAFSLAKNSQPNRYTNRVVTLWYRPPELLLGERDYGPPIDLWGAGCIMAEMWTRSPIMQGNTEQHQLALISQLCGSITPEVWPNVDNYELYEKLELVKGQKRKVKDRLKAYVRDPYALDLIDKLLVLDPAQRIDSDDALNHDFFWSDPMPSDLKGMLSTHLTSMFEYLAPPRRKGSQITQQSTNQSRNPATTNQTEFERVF
CDK9-Cyclin T1, sequence (O60563 whole entry partner): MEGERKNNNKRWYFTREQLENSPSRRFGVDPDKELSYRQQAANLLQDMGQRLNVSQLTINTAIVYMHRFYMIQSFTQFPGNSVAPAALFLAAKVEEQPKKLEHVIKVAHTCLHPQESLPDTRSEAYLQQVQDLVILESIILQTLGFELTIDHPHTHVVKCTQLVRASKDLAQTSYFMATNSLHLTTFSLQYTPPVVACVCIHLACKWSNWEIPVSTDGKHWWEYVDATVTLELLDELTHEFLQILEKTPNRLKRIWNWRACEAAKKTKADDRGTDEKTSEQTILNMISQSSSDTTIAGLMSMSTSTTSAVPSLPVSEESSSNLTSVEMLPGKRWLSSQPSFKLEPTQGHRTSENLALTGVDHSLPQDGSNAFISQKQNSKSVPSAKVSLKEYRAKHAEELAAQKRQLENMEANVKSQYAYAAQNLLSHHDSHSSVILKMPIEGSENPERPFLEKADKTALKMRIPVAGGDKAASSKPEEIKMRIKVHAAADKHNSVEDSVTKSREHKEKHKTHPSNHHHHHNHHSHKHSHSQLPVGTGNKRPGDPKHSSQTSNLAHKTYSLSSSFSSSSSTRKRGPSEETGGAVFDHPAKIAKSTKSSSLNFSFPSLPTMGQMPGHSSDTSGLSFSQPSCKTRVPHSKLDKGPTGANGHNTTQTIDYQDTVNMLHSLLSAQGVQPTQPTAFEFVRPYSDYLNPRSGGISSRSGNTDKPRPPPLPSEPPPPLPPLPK
Description: as §1, §2, §3, §4, §5

CLK2 = CLK2 (Homo sapiens, UniProt P49760); experiment: Protein kinase assay ([γ-32P] ATP), CLK2
CLK2, sequence (P49760 whole entry): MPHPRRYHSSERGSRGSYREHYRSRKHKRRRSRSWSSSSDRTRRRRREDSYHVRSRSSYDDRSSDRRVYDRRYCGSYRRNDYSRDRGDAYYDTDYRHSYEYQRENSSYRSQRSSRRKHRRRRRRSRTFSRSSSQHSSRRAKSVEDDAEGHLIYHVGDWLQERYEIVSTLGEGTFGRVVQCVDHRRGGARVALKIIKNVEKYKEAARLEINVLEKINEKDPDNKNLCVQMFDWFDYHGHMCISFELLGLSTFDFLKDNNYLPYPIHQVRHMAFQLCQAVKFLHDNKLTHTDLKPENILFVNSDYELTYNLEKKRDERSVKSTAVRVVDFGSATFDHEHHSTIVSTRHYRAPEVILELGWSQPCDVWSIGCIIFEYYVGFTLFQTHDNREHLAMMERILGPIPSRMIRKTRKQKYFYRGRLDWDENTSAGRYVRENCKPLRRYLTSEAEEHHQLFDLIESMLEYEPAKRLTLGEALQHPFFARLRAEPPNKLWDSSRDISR
Description: as §1, §2, §3, §4, §5

HIPK2 = HIPK2 (Homo sapiens, UniProt Q9H2X6); experiment: Protein kinase assay ([γ-32P] ATP), HIPK2
Description: as §1, §2, §3, §4, §5

IRR = IRR (Homo sapiens, UniProt P14616); experiment: Protein kinase assay ([γ-32P] ATP), IRR
Description: as §1, §2, §3, §4, §5

MARK1 = MARK1 (Homo sapiens, UniProt Q9P0L2); experiment: Protein kinase assay ([γ-32P] ATP), MARK1
MARK1, sequence (Q9P0L2 whole entry): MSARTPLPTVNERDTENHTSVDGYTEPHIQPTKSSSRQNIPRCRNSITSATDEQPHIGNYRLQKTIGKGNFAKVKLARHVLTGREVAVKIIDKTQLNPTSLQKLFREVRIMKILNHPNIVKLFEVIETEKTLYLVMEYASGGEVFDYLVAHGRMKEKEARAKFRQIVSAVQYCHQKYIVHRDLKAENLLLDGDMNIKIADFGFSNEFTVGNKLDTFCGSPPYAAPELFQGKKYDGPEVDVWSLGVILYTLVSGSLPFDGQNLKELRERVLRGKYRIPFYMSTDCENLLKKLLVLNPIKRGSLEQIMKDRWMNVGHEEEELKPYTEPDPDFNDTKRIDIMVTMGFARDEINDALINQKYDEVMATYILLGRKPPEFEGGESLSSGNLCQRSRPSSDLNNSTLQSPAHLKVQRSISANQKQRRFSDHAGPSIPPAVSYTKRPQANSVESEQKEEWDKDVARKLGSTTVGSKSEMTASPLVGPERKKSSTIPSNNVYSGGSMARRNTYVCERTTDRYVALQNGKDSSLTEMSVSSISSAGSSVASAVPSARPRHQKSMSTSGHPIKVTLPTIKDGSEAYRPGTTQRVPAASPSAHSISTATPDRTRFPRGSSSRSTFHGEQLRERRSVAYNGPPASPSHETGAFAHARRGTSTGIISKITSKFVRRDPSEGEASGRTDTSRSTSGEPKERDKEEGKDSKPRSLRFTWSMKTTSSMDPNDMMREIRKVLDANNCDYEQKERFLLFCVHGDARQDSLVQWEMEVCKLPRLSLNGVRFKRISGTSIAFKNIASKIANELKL
Description: as §1, §2, §3, §4, §5

MELK = MELK (Homo sapiens, UniProt Q14680); experiment: Protein kinase assay ([γ-32P] ATP), MELK
Description: as §1, §2, §3, §4, §5

MLK3 = MLK3 (Homo sapiens, UniProt Q16584); experiment: Protein kinase assay ([γ-32P] ATP), MLK3
MLK3, sequence (Q16584 whole entry): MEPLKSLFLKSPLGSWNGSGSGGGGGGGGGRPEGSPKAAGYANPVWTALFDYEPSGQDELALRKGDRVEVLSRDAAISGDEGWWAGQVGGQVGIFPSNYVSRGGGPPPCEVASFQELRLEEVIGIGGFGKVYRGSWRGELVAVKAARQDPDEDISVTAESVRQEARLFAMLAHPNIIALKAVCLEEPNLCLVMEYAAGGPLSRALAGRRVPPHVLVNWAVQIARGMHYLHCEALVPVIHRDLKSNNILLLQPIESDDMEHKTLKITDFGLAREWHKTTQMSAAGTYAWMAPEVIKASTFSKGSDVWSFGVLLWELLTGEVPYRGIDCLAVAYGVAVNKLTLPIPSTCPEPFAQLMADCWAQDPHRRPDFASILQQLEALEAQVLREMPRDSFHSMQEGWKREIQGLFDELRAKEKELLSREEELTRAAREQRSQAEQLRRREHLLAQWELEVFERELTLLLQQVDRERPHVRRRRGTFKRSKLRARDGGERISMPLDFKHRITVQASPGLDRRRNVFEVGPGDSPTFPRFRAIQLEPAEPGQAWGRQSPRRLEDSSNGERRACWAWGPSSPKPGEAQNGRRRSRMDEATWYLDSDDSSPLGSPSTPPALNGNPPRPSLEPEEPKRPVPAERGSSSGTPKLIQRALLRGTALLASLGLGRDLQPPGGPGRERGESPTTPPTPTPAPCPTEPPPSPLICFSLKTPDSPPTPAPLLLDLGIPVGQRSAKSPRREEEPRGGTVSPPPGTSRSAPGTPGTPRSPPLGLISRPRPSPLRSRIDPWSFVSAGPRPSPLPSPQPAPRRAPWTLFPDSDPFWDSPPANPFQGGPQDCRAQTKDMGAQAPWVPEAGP
Description: as §1, §2, §3, §4, §5

MNK1 = MNK1 (Homo sapiens, UniProt Q9BUB5); experiment: Protein kinase assay ([γ-32P] ATP), MNK1
MNK1, sequence (Q9BUB5 whole entry): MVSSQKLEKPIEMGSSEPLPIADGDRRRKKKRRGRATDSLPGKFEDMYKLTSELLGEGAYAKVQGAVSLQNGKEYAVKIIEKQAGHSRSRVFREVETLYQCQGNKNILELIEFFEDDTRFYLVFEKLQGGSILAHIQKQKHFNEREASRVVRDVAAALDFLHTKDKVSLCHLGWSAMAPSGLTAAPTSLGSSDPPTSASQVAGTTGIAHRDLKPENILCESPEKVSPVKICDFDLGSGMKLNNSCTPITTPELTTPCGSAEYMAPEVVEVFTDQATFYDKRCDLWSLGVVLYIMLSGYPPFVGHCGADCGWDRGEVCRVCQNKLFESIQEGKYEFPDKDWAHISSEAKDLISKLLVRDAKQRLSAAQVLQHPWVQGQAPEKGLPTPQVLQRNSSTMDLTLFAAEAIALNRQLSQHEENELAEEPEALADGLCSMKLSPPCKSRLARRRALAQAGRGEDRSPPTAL
Description: as §1, §2, §3, §4, §5

MPSK1 = MPSK1 (Homo sapiens, UniProt O75716); experiment: Protein kinase assay ([γ-32P] ATP), MPSK1
MPSK1, sequence (O75716 whole entry): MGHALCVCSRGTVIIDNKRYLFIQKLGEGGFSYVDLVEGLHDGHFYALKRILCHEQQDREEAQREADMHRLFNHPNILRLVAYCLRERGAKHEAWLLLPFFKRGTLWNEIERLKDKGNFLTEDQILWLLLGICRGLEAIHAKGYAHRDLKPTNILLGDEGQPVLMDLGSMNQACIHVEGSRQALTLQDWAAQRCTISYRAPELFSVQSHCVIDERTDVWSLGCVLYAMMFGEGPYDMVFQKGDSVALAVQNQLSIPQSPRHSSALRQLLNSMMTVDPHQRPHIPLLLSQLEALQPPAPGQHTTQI
Description: as §1, §2, §3, §4, §5

MST4 = MST4 (Homo sapiens, UniProt Q9P289); experiment: Protein kinase assay ([γ-32P] ATP), MST4
Description: as §1, §2, §3, §4, §5

PIM3 = PIM3 (Homo sapiens, UniProt Q86V86); experiment: Protein kinase assay ([γ-32P] ATP), PIM3
Description: as §1, §2, §3, §4, §5

PKCa = PKCa (Homo sapiens, UniProt P17252); experiment: Protein kinase assay ([γ-32P] ATP), PKCa
Description: as §1, §2, §3, §4, §5

Src = Src (Homo sapiens, UniProt P12931); experiment: Protein kinase assay ([γ-32P] ATP), Src
Description: as §1, §2, §3, §4, §5

SRPK1 = SRPK1 (Homo sapiens, UniProt Q96SB4); experiment: Protein kinase assay ([γ-32P] ATP), SRPK1
Description: as §1, §2, §3, §4, §5

TrkA = TrkA (Homo sapiens, UniProt P04629); experiment: Protein kinase assay ([γ-32P] ATP), TrkA
TrkA, sequence (P04629 33-796, species assumed): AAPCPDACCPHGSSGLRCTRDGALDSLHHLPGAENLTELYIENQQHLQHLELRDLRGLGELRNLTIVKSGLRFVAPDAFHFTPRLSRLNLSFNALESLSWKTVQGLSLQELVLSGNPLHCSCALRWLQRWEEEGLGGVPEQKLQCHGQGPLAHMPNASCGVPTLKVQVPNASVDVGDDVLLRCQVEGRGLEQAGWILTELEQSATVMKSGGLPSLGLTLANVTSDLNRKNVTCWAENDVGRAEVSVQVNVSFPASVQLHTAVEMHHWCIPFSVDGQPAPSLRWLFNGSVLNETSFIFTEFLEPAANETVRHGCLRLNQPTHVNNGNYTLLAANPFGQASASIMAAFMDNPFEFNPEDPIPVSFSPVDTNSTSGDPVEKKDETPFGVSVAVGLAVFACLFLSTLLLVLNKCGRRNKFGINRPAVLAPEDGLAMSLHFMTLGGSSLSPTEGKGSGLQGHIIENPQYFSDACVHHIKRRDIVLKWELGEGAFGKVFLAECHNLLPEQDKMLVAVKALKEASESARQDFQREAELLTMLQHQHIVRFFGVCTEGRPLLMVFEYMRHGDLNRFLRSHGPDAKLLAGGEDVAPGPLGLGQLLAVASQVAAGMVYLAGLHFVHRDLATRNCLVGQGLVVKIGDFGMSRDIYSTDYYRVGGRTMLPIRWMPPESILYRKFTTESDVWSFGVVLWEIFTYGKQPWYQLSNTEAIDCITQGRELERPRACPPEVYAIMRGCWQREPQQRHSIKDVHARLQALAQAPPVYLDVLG
Description: as §1, §2, §3, §4, §5

[1] = 0.1 μM of compound I-1, DMSO control = 100%
[2] = 1 μM of compound I-1, DMSO control = 100%

In the case of `Cc1cccc(C)c1NC(=O)N1C/C=C\COc2cccc(c2)Nc2cc1ncn2` [Compound I-1], the remaining activity at 0.1 µM (BRSK1; [1]) is reported as 87%, the remaining activity at 1 µM (BRSK1; [2]) is reported as 66% and the remaining activity at 0.1 µM (BTK; [1]) is reported as 46%. The remaining activity at 1 µM (BTK; [2]) was 48%, the remaining activity at 0.1 µM (CDK9-Cyclin T1; [1]) was 116% and the remaining activity at 1 µM (CDK9-Cyclin T1; [2]) was 92%. The remaining activity at 0.1 µM (CLK2; [1]) was 100%, the remaining activity at 1 µM (CLK2; [2]) was 90% and the remaining activity at 0.1 µM (HIPK2; [1]) was 110%. The remaining activity at 1 µM (HIPK2; [2]) was 91%, the remaining activity at 0.1 µM (IRR; [1]) was 98% and the remaining activity at 1 µM (IRR; [2]) was 83%. For the same molecule, the remaining activity at 0.1 µM (MARK1; [1]) was 62%, the remaining activity at 1 µM (MARK1; [2]) was 68% and the remaining activity at 0.1 µM (MELK; [1]) was 67%. For the same molecule, the remaining activity at 1 µM (MELK; [2]) was 49%, the remaining activity at 0.1 µM (MLK3; [1]) was 94% and the remaining activity at 1 µM (MLK3; [2]) was 39%. For the same molecule, the remaining activity at 0.1 µM (MNK1; [1]) was 105%, the remaining activity at 1 µM (MNK1; [2]) was 90% and the remaining activity at 0.1 µM (MPSK1; [1]) was 110%. The remaining activity at 1 µM (MPSK1; [2]) was 89%, the remaining activity at 0.1 µM (MST4; [1]) was 133% and the remaining activity at 1 µM (MST4; [2]) was 81%. The remaining activity at 0.1 µM (PIM3; [1]) was 93%, the remaining activity at 1 µM (PIM3; [2]) was 84% and the remaining activity at 0.1 µM (PKCa; [1]) was 101%. For the same molecule, the remaining activity at 1 µM (PKCa; [2]) was 91%, the remaining activity at 0.1 µM (Src; [1]) was 25% and the remaining activity at 1 µM (Src; [2]) was 24%. It also gave a remaining activity at 0.1 µM (SRPK1; [1]) of 100%, a remaining activity at 1 µM (SRPK1; [2]) of 74% and a remaining activity at 0.1 µM (TrkA; [1]) of 54%. For the same molecule, the remaining activity at 1 µM (TrkA; [2]) was 76%.
